Where “and” joins values, the source holds several entries; their conditions need not be identical. Equal values may be shown once.
Test system: MDA-MB-468 complex spheroids with HUVEC/MSC, viability
Assay: Anticancer human tumor MDA-MB-468 cell line growth inhibition;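 further: spheroids exposed to agents for seven days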;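 on viability, T/C: 100% = DMSO vehicle control viability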
Settings: for viability, T/C: stronger effect = lower value; active means viability on the fitted dose curve at most 10% of control; inactive means the rest
Summary of the method: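 Multicellular complex spheroids of tumor cells with human endothelial cells (HUVEC) and mesenchymal stem cells; the LSD1 inhibitor iadademstat was combined with standard-of-care or investigational agents. Top concentration at or near clinical Cmax, half-log dilutions; final DMSO ≤0.25%.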

CCN(c1cc(-c2ccc(CN3CCOCC3)cc2)cc(C(=O)NCc2c(C)cc(C)[nH]c2=O)c1C)C1CCOCC1
> 3000 nM and 441 nM: IC50 (curve of compound)
inactive: viability, T/C (compound 0.00949 µM) 81.6% and 96.5% | viability, T/C (compound 0.03 µM) 100% and 76.8% | viability, T/C (compound 0.0949 µM) 118% and 74.4% | viability, T/C (compound 0.3 µM) 92.3% and 50.2% | viability, T/C (compound 0.949 µM) 92.2% and 44% | viability, T/C (compound 3 µM) 75.7% and 24.5%

Nc1ccn(C2OC(CO)C(O)C2(F)F)c(=O)n1 (stereo not drawn)
< 0.949 nM: IC50 (curve of compound)
active: viability, T/C (compound 0.00949 µM) 5.5% and 5.58% | viability, T/C (compound 0.03 µM) 5.68% and 4.46% | viability, T/C (compound 0.0949 µM) 5.72% and 4.42% | viability, T/C (compound 0.3 µM) 5.93% and 4.29%
6.32% and 18.5%: viability, T/C (compound 0.003 µM)

COc1cc(Nc2ncc3c(n2)-c2ccc(Cl)cc2C(c2c(F)cccc2OC)=NC3)ccc1C(=O)O + NC1CC1c1ccc(-c2cccc(O)c2)cc1
< 3.16 nM: IC50 (curve of first compound, second compound 0.1 µM) | IC50 (curve of first compound, second compound 0.316 µM) | IC50 (curve of first compound, second compound 1 µM) | IC50 (curve of first compound, second compound 3.16 µM) | IC50 (curve of first compound, second compound 10 µM)
inactive: viability, T/C (second compound 0.1 µM, first compound 0.00316 µM) 15.5% | viability, T/C (second compound 0.316 µM, first compound 0.00316 µM) 14.5% | viability, T/C (second compound 1 µM, first compound 0.00316 µM) 14.1% | viability, T/C (second compound 3.16 µM, first compound 0.00316 µM) 14.1% | viability, T/C (second compound 10 µM, first compound 0.00316 µM) 12.6%
active: viability, T/C (second compound 0.1 µM, first compound 0.01 µM) 6.89% | viability, T/C (second compound 0.1 µM, first compound 0.0316 µM) 6.01% | viability, T/C (second compound 0.1 µM, first compound 0.1 µM) 4.91% | viability, T/C (second compound 0.1 µM, first compound 0.316 µM) 3.38% | viability, T/C (second compound 0.1 µM, first compound 1 µM) 2.48% | viability, T/C (second compound 0.316 µM, first compound 0.01 µM) 6.72% | viability, T/C (second compound 0.316 µM, first compound 0.0316 µM) 5.86% | viability, T/C (second compound 0.316 µM, first compound 0.1 µM) 5.06% | viability, T/C (second compound 0.316 µM, first compound 0.316 µM) 3.01% | viability, T/C (second compound 0.316 µM, first compound 1 µM) 2.59% | viability, T/C (second compound 1 µM, first compound 0.01 µM) 7.25% | viability, T/C (second compound 1 µM, first compound 0.0316 µM) 5% | viability, T/C (second compound 1 µM, first compound 0.1 µM) 4.96% | viability, T/C (second compound 1 µM, first compound 0.316 µM) 2.88% | viability, T/C (second compound 1 µM, first compound 1 µM) 1.8% | viability, T/C (second compound 3.16 µM, first compound 0.01 µM) 8% | viability, T/C (second compound 3.16 µM, first compound 0.0316 µM) 5.68% | viability, T/C (second compound 3.16 µM, first compound 0.1 µM) 5.16% | viability, T/C (second compound 3.16 µM, first compound 0.316 µM) 3.35% | viability, T/C (second compound 3.16 µM, first compound 1 µM) 2.58% | viability, T/C (second compound 10 µM, first compound 0.01 µM) 7.29% | viability, T/C (second compound 10 µM, first compound 0.0316 µM) 6.71% | viability, T/C (second compound 10 µM, first compound 0.1 µM) 5.57% | viability, T/C (second compound 10 µM, first compound 0.316 µM) 3.87% | viability, T/C (second compound 10 µM, first compound 1 µM) 4.35%
